Data as given in patent US20100254928A1, “NOVEL COMPOSITION CONTAINING OZONIZED SURFACTANT” (priority 2007, published 2010).

What was measured:
[1] = Temporal change in oxidizing property (iodine titration method); assay type: physicochemical; settings: 25° C.
Excerpt: After deaerating the obtained aqueous ozonized surfactant solution to remove dissolved ozone gas by helium purging, the oxidizing property of the aqueous ozonized surfactant solution can be determined by the iodine titration method (see Non Patent Literature 1). Whether or not the aqueous ozonized surfactant solution maintains a function as a surfactant can be evaluated by checking whether or not frothing, which is a characteristic of surfactants, occurs when the solution is agitated or vibrated.
Meanwhile, oxygen was supplied from an oxygen cylinder into an ozonizer (ozonizer GR-RB made by Sumitomo Precision Products Co., Ltd.) at an oxygen flow rate of 0.3 L/min to ozonize the oxygen to produce ozone gas. Then, the ozone gas was dissolved in the above-described aqueous solution in a dissolving module (SEK model made by ERC Technology), and the aqueous solution was circulated at a flow rate of 1 L/min. […] Further, in 30 minutes, the concentration increased to 25 ppm (see FIG. 2). After deaerating the aqueous solution that had undergone about 30-minute ozone treatment to remove dissolved ozone gas by helium purging, oxidizing property of the aqueous solution was determined by the iodine titration method. As a result, the aqueous solution had oxidizing property, and frothing, which is a characteristic of surfactants, was observed. The results confirmed that ozonized Tween 80 had been produced. Further, a temporal change in the oxidizing property of the aqueous solution was determined by the iodine titration method at 25° C. for 20 days. As a result, the percentage of oxidizing property measured after 20 days to that measured just after preparation was 109%.
The solution A was diluted to a 1% aqueous solution, and a temporal change in the oxidizing property of the aqueous solution was determined by the iodine titration method at 25° C. for 700 days. As a result, the percentage of oxidizing property measured after 700 days to that measured just after preparation was 101%.

slug = experiment: Insecticidal activity: test of killing slugs; assay type: in vivo; settings: 1% aqueous solution, 2 pushes: 1.88 mL sprayed from 15 cm above
Experimental: In order to check the insect control performance of the ozonized surfactant, a test of killing slugs was performed. A slug was put into a glass petri dish. Onto the slug, a 1% aqueous solution of the ozonized surfactant obtained in Example 4, 5, 7, 9 or 10 (2 pushes: 1.88 mL) was sprayed from 15 cm above. After that, the time elapsed until the slug died (the motion stopped) was measured. As a control, the same evaluation was simultaneously performed with a commercial insecticide (product name: NEW Namekuji (slug) Spray, made by Sumitomo Chemical Garden Products Inc., Lot No. 11.05 0806JE) containing a natural substituted phenol, a copper compound and an alcohol, as active ingredients.

[2] = tested on: mold (filamentous fungus); experiment: Evaluation of antiseptic activity in thickener solution; assay type: cell-based; settings: 0.1% in 3.5% Carbopol ETD2020 aqueous solution, 25° C.
Experimental: In order to check the antiseptic performance of ozonized surfactants, the ozonized surfactants were added to a substance susceptible to mold. […] Into a 100 mL-glass bottle, 50 mL of the sample was charged. The bottles were kept at 25° C. in a thermostatic air chamber, and temporal changes were visually observed. […] The mold-like material was removed and examined under a 700-power microscope. As a result, spores were detected and the material was identified as a filamentous fungus. The above results confirmed the antiseptic activity of the ozonized surfactants.

insects such as ants = experiment: Repellent activity (Test Example 14); assay type: in vivo, pill bug; settings: 2 mL of 1% aqueous solution on tissue paper with 1 g honey, 8 hours
Experimental: The repellent performance of the ozonized surfactant of the present invention was checked. […] In addition, 1 g of honey was instilled into the center. […] These specimens were placed on leaf mold in a flower bed, and the conditions were observed 8 hours later.

Orgyia thyellina larva = experiment: Insecticidal activity: test of killing other insects; assay type: in vivo; settings: 2% aqueous solution, 1.88 mL sprayed
Experimental: (§1) In order to check the insect control performance of the ozonized surfactant, a test of killing other insects was performed. An Orgyia thyellina larva, a Sphrageidus similis larva, and an Arge pagana larva were put into separate glass petri dishes. Onto each insect pest, a 2% aqueous solution of the solution obtained in Example 5 (2 pushes: 1.88 mL) was sprayed from 15 cm above. After that, the time elapsed until each insect died (the motion stopped) was measured.

Arge pagana larva = experiment: as above; assay type: in vivo; settings: 2% aqueous solution, 1.88 mL sprayed
Experimental: as §1

[3] = tested on: Sphrageidus similis larva; experiment: as above; assay type: in vivo; settings: 2% aqueous solution, 1.88 mL sprayed
Experimental: as §1

[4] = Surface-active property test (contact angle); assay type: physicochemical
Experimental: The surface-active properties of ozonized surfactants were determined in the following manner. Aqueous solutions each containing 1% Tween 80, POE (10 EO) oleyl ether or POE (20 EO) oleyl ether (all of which were made by Wako Pure Chemical Industries, Ltd.) were prepared. Each solution was dropped on a polyvinyl chloride plate and measured for a contact angle (θ) with the use of a contact angle meter CA-VP (made by Kyowa Interface Science Co., Ltd.). The same measurement was carried out for a 1% aqueous solution of the ozonized surfactant obtained in Example 1, 4, or 8.

## Ozonized POE sorbitan monooleate (20 EO) [Example 7]
[1]; 1% aqueous solution, 700 days
  percentage of oxidizing property measured after 700 days to that measured just after preparation: 100%
slug
  Death time of slug: 244 s

## Ozonized POE (20 EO) oleyl ether [Example 8]
[1]; 1% aqueous solution, 300 days
  percentage of oxidizing property measured after 300 days to that measured just after preparation: 100%

## ozonized Tween 80 [Example 1]
[1]; 0.1% aqueous solution, 20 days
  percentage of oxidizing property measured after 20 days to that measured just after preparation: 109%

## Ozonized decaglycerin monooleate [Example 6]
[2]
  Antiseptic activity of thickener soln. (visually observed), 1 month after: Good
  Antiseptic activity of thickener soln. (visually observed), 1 week after: Good
Insects such as ants
  insects gathered on the specimen: did not gather at all

## Ozonized polyethylene glycol monooleate [Example 5]
[1]; 1% aqueous solution, 180 days
  percentage of oxidizing property measured after 180 days to that measured just after preparation: 100%
slug
  Death time of slug: 729 s
[2]
  Antiseptic activity of thickener soln. (visually observed), 1 month after: Good
  Antiseptic activity of thickener soln. (visually observed), 1 week after: Good
Orgyia thyellina larva
  Death time: 100 s
Arge pagana larva
  Death time: 115 s
[3]
  Death time: 130 s

## POE (20 EO) oleyl ether
[4]; 1% aqueous solution of the ozonized surfactant obtained in Example 1, 4, or 8, on polyvinyl chloride plate
  Contact angle, After ozonization: 26.7 degree (°)
[4]; 1% aqueous solution on polyvinyl chloride plate, ion exchange water 87.3°
  Contact angle, Before ozonization: 59.4 degree (°)

## decaglycerin monooleate [Decaglycerol monooleate, reference compound]
Insects such as ants
  ants gathered on the specimen: 10 ants

## CCCCCCCC/C=C\CCCCCCCC[N+](C)(C)CCCCCCCC/C=C\CCCCCCCC.[Cl-] [Unozonized surfactant of Ex. 10, dimethyldioleylammonium chloride, reference compound]
Insects such as ants
  ants gathered on the specimen: 15 ants
